≈ marks a conversion by molar mass, not a printed value.
How the values were obtained:
Escherichia coli = test: Antibacterial activity against Escherichia coli by dilution technique; format: functional
Pseudomonas aeruginosa = test: Antibacterial activity against Pseudomonas aeruginosa by dilution technique; format: functional
Acinetobacter baumannii = test: Antibacterial activity against Acinetobacter baumannii by dilution technique; format: functional
Bacillus subtilis [1] = test: Antibacterial activity against Bacillus subtilis 168 by dilution technique; format: functional; conditions: subsp. subtilis str. 168
Staphylococcus aureus [2] = test: Antibacterial activity against Staphylococcus aureus RN4220 by dilution technique; format: functional
Bacillus subtilis [3] = test: Antibacterial activity against Bacillus subtilis 168 by dilution technique in presence of chloramphenicol; format: functional, subsp. subtilis str. 168
Staphylococcus aureus [4] = test: Antibacterial activity against community associated methicillin-resistant Staphylococcus aureus USA300 by dilution technique in presence of chloramphenicol; format: functional
Bacillus subtilis [5] = test: Antibacterial activity against Bacillus subtilis 168 by dilution technique in presence of kanamycin; format: functional, subsp. subtilis str. 168
Staphylococcus aureus [6] = test: Antibacterial activity against community associated methicillin-resistant Staphylococcus aureus USA300 by dilution technique in presence of kanamycin; format: functional
Staphylococcus aureus [7] = test: Antibacterial activity against community associated methicillin-resistant Staphylococcus aureus USA300 by dilution technique; format: functional
[8] = Selectivity index, ratio of IC50 for human HEK293 cells to MIC for Staphylococcus aureus RN4220; format: functional
[9] = Selectivity index, ratio of IC50 for human HeLa cells to MIC for Staphylococcus aureus RN4220; format: functional
[10] = Selectivity index, ratio of IC50 for human HEK293 cells to MIC for community associated methicillin-resistant Staphylococcus aureus USA300; format: functional
[11] = Selectivity index, ratio of IC50 for human HeLa cells to MIC for community associated methicillin-resistant Staphylococcus aureus USA300; format: functional
HeLa = test: Cytotoxicity against human HeLa cells after 72 hrs by MTT assay; format: cell-based
HEK293 = test: Cytotoxicity against human HEK293 cells after 72 hrs by MTT assay; format: cell-based; conditions: HEK293, 72 h

Row | SMILES | MIC (Escherichia coli) [µg/mL] | MIC (Pseudomonas aeruginosa) [µg/mL] | MIC (Acinetobacter baumannii) [µg/mL] | MIC (Bacillus subtilis [1]) [µg/mL] | MIC (Staphylococcus aureus [2]) [µg/mL] | fractional inhibitory concentration index (FICI) (Bacillus subtilis [3]) | fractional inhibitory concentration index (FICI) (Staphylococcus aureus [4]) | fractional inhibitory concentration index (FICI) (Bacillus subtilis [5]) | fractional inhibitory concentration index (FICI) (Staphylococcus aureus [6]) | MIC (Staphylococcus aureus [7]) [µg/mL] | MBC (Bacillus subtilis [1]) [µg/mL] | Selectivity Index [8] | Selectivity Index [9] | Selectivity Index [10] | Selectivity Index [11] | IC50 (HeLa) [µg/mL] | IC50 (HEK293) [µg/mL] | MBC (Staphylococcus aureus [7]) [µg/mL] | MBC (Staphylococcus aureus [2]) [µg/mL]
1 | CC(C)(O)[C@H]1CC[C@@](C)([C@H]2CC[C@]3(C)[C@@H]2C(=O)C[C@@H]2[C@@]4(C)CC[C@H](O)C(C)(C)[C@@H]4CC[C@]23C)O1 | > 128 | > 128 | > 128 | 128 (≈ 270 µM) | > 128 |  |  |  |  |  |  |  |  |  |  |  |  |  | 
2 | CC(C)(O)[C@@H]1CC[C@@](C)([C@H]2CC[C@]3(C)[C@@H]2[C@H](O)C[C@@H]2[C@@]4(C)CCC(=O)C(C)(C)[C@@H]4CC[C@]23C)O1 | > 128 | > 128 | > 128 | 32 (≈ 67.4 µM) | > 128 |  |  |  |  |  |  |  |  |  |  |  |  |  | 
3 | CC(C)=CCC[C@](C)(O)[C@H]1CC[C@]2(C)[C@@H]1[C@H](O)C[C@@H]1[C@@]3(C)CC[C@H](O)C(C)(C)[C@@H]3CC[C@]12C | 64 (≈ 139 µM) | > 128 | 64 (≈ 139 µM) | 32 (≈ 69.5 µM) | 16 (≈ 34.7 µM) | 0.53 | 1.13 | 0.25 | 0.26 | 32 (≈ 69.5 µM) |  |  |  |  |  |  |  |  | 
4 | CC(C)(O)[C@H]1CC[C@@](C)([C@H]2CC[C@]3(C)[C@@H]2[C@H](OC(=O)c2ccccc2C(=O)O)C[C@@H]2[C@@]4(C)CC[C@H](O)C(C)(C)[C@@H]4CC[C@]23C)O1 | > 128 | > 128 | > 128 | 16 (≈ 25.6 µM) | 64 (≈ 102 µM) |  |  |  |  | 64 (≈ 102 µM) | 128 (≈ 205 µM) |  |  |  |  |  |  |  | 
5 | CC(C)(O)[C@@H]1CC[C@@](C)([C@H]2CC[C@]3(C)[C@@H]2[C@H](O)C[C@@H]2[C@@]4(C)CC[C@H](O)C(C)(C)[C@@H]4CC[C@]23C)O1 | > 128 | > 128 | > 128 | 8 (≈ 16.8 µM) | 8 (≈ 16.8 µM) | 1.25 | 1.5 | 1.03 | 0.14 | 8 (≈ 16.8 µM) |  | 19.3 | 6 | 19.3 | 6 | 47.6 (≈ 99.9 µM) | 154 (≈ 324 µM) |  | 
6 | CC(C)(O)[C@@H]1CC[C@@](C)([C@H]2CC[C@]3(C)[C@@H]2C(=O)C[C@@H]2[C@@]4(C)CC[C@H](O)C(C)(C)[C@@H]4CC[C@]23C)O1 | 64 (≈ 135 µM) | > 128 | > 128 | > 128 | 64 (≈ 135 µM) |  |  |  |  |  |  |  |  |  |  |  |  |  | 
7 | O=c1[nH]cc(F)c(=O)[nH]1 [FLUOROURACIL] |  |  |  |  |  |  |  |  |  |  |  |  |  |  |  | 0.8 (≈ 6.15 µM) |  |  | 
8 | O=C(N[C@H](CO)[C@H](O)c1ccc([N+](=O)[O-])cc1)C(Cl)Cl [CHLORAMPHENICOL] |  |  |  | 2 (≈ 6.19 µM) |  |  |  |  |  | 4 (≈ 12.4 µM) |  |  |  |  |  |  |  |  | 
9 | CC(C)(O)[C@H]1CC[C@@](C)([C@H]2CC[C@]3(C)[C@@H]2[C@H](O)C[C@@H]2[C@@]4(C)CCC(=O)C(C)(C)[C@@H]4CC[C@]23C)O1 | > 128 | > 128 | > 128 | 128 (≈ 270 µM) | 128 (≈ 270 µM) |  |  |  |  |  |  |  |  |  |  |  |  |  | 
10 | CC(C)(O)[C@@H]1CC[C@@](C)([C@H]2CC[C@]3(C)[C@@H]2[C@H](OC(=O)/C=C/c2ccccc2)C[C@@H]2[C@@]4(C)CC[C@H](O)C(C)(C)[C@@H]4CC[C@]23C)O1 | > 128 | 128 (≈ 211 µM) | 32 (≈ 52.7 µM) | > 128 | > 128 |  |  |  |  |  |  |  |  |  |  |  |  |  | 
11 | NC[C@H]1O[C@H](O[C@H]2[C@H](O)[C@@H](O[C@H]3O[C@H](CO)[C@@H](O)[C@H](N)[C@H]3O)[C@H](N)C[C@@H]2N)[C@H](O)[C@@H](O)[C@@H]1O [KANAMYCIN] | 1 (≈ 2.06 µM) | 8 (≈ 16.5 µM) | 1 (≈ 2.06 µM) | 0.25 (≈ 0.516 µM) | 1 (≈ 2.06 µM) |  |  |  |  | 1 (≈ 2.06 µM) | 1 (≈ 2.06 µM) |  |  |  |  |  |  | 4 (≈ 8.26 µM) | 
12 | CC(C)(O)[C@@H]1CC[C@@](C)([C@H]2CC[C@]3(C)[C@@H]2C(=O)C[C@@H]2[C@@]4(C)CCC(=O)C(C)(C)[C@@H]4CC[C@]23C)O1 | > 128 | > 128 | > 128 | 64 (≈ 135 µM) | 16 (≈ 33.8 µM) |  |  |  |  | 16 (≈ 33.8 µM) |  | 10.6 | 2.9 | 10.6 | 2.9 | 47 (≈ 99.4 µM) | 170 (≈ 360 µM) |  | 
13 | CC(C)(O)[C@@H]1CC[C@@](C)([C@H]2CC[C@]3(C)[C@@H]2[C@H](OC(=O)c2ccccc2C(=O)O)C[C@@H]2[C@@]4(C)CC[C@H](O)C(C)(C)[C@@H]4CC[C@]23C)O1 | > 128 | 128 (≈ 205 µM) | > 128 | 16 (≈ 25.6 µM) | 4 (≈ 6.4 µM) | <0.004 | 0.005 | <0.008 | 0.008 | 32 (≈ 51.2 µM) | 64 (≈ 102 µM) | 43.8 | 13.6 | 5.5 | 1.7 | 54.4 (≈ 87 µM) | 175 (≈ 281 µM) | 128 (≈ 205 µM) | 64 (≈ 102 µM)
14 | CC(=O)O[C@@H]1C[C@@H]2[C@@]3(C)CC[C@H](O)C(C)(C)[C@@H]3CC[C@@]2(C)[C@]2(C)CC[C@H]([C@]3(C)CC[C@H](C(C)(C)O)O3)[C@@H]12 | 64 (≈ 123 µM) | 128 (≈ 247 µM) | 128 (≈ 247 µM) | > 128 | 64 (≈ 123 µM) |  |  |  |  |  |  |  |  |  |  |  |  |  | 
15 | CC(=O)O[C@@H]1C[C@@H]2[C@@]3(C)CC[C@H](O)C(C)(C)[C@@H]3CC[C@@]2(C)[C@]2(C)CC[C@H]([C@]3(C)CC[C@@H](C(C)(C)O)O3)[C@@H]12 | 64 (≈ 123 µM) | 64 (≈ 123 µM) | 64 (≈ 123 µM) | > 128 | > 128 |  |  |  |  |  |  |  |  |  |  |  |  |  | 
16 | C=C(C)[C@@H]1CC[C@]2(C(=O)O)CC[C@]3(C)[C@H](CC[C@@H]4[C@@]5(C)CC[C@H](O)[C@@](C)(CO)[C@@H]5CC[C@]43C)[C@@H]12 | > 128 | > 128 | > 128 | 8 (≈ 16.9 µM) | 16 (≈ 33.8 µM) |  |  |  |  | 16 (≈ 33.8 µM) |  |  |  |  |  |  |  |  | 
17 | CC(C)(O)[C@H]1CC[C@@](C)([C@H]2CC[C@]3(C)[C@@H]2C(=O)C[C@@H]2[C@@]4(C)CCC(=O)C(C)(C)[C@@H]4CC[C@]23C)O1 | > 128 | > 128 | > 128 | 128 (≈ 271 µM) | 128 (≈ 271 µM) |  |  |  |  |  |  |  |  |  |  |  |  |  | 
18 | CC(C)(O)[C@H]1CC[C@@](C)([C@H]2CC[C@]3(C)[C@@H]2[C@H](O)C[C@@H]2[C@@]4(C)CC[C@H](O)C(C)(C)[C@@H]4CC[C@]23C)O1 | > 128 | > 128 | 128 (≈ 268 µM) | 128 (≈ 268 µM) | 64 (≈ 134 µM) |  |  |  |  |  |  |  |  |  |  |  |  |  | 

Source: ChEMBL document CHEMBL2424524, “Synthesis and biological evaluation of novel ocotillol-type triterpenoid derivatives as antibacterial agents” (Eur J Med Chem, 2013)
